Experimental data as given in patent US20200093814A1, “COMBINATION THERAPY WITH AMIDINE SUBSTITUTED BETA-LACTAM COMPOUNDS AND BETA-LACTAMASE INHIBITORS FOR INFECTIONS WITH ANTIBIOTIC RESISTANT BACTERIAL STRAINS” (AiCuris GmbH & Co. KG, priority 2016, published 2020).

Assays:
Format in all cases: cell-based
Settings in all cases: BLI where combined at 4 μg/mL
E. coli 128 (SHV-2a) = experiment: MIC determination, broth microdilution (CLSI)
Description: (§1) While the compounds of this invention were serially diluted as described above, a constant concentration of the β-lactamase inhibitor of […] was used.

[1] = system: K. pneumoniae NCTC 13440 (VIM-1, SHV-12); experiment: MIC determination, broth microdilution (CLSI)
Description: as §1

[2] = system: E. coli DSM 22315 (VEB-1); experiment: MIC determination, broth microdilution (CLSI)
Description: as §1

E. coli 72 (CTX-M) = experiment: MIC determination, broth microdilution (CLSI)
Description: as §1

E. coli 121 (CTX-M) = experiment: MIC determination, broth microdilution (CLSI)
Description: as §1

K. pneumoniae 68 (SHV-5) = experiment: MIC determination, broth microdilution (CLSI)
Description: as §1

K. pneumoniae 79 (CTX-M) = experiment: MIC determination, broth microdilution (CLSI)
Description: as §1

[3] = system: E. coli 17 (CTX-M, CMY-2); experiment: MIC determination, broth microdilution (CLSI)
Description: as §1

E. coli 10 (TEM-20) = experiment: MIC determination, broth microdilution (CLSI)
Description: as §1

[4] = system: E. coli J62-TEM-3 transconjugant (TEM-3); experiment: MIC determination, broth microdilution (CLSI)
Description: as §1

[5] = system: E. cloacae 58 (SHV-12, de-repressed AmpC)
[6] = system: K. pneumoniae NRZ-15601 (OXA-48, SHV-12); experiment: MIC determination, broth microdilution (CLSI)
Description: as §1

[7] = system: K. pneumoniae 16/10 (OXA-48, CTX-M-15); experiment: MIC determination, broth microdilution (CLSI)
Description: as §1

Compound | MIC (E. coli 128 (SHV-2a)) [µg/mL] | MIC [1] [µg/mL] | MIC [2] [µg/mL] | MIC (E. coli 72 (CTX-M)) [µg/mL] | MIC (E. coli 121 (CTX-M)) [µg/mL] | MIC (K. pneumoniae 68 (SHV-5)) [µg/mL] | MIC (K. pneumoniae 79 (CTX-M)) [µg/mL] | MIC [3] [µg/mL] | MIC (E. coli 10 (TEM-20)) [µg/mL] | MIC [4] [µg/mL] | MIC [5] [µg/mL] | MIC [6] [µg/mL] | MIC [7] [µg/mL]
aztreonam | 8 | 128 | 64 | 128 | 64 | 128 | 32 | 128 | 64 | 8 | – | – | –
CC(C)(O/N=C(\C(=O)N[C@@H]1C(=O)N2C(C(=O)[O-])=C(C[n+]3ccccc3)CS[C@H]12)c1csc(N)n1)C(=O)O [ceftazidime] | 16 | – | 128 | 32 | 32 | 64 | 16 | 128 | 32 | 16 | 128 | 64 | 128
